The values that follow come from patent publication US20210255167A1, “COMPOSITIONS AND METHODS FOR ASSESSING TOXICITY USING DYNAMIC BH3 PROFILING” (Dana-Farber Cancer Institute, Inc., priority 2015, published 2021).

In the series the test system is adult mouse hepatocytes. From the text:
In some aspects, methods provided herein relate to determining the toxicity of an agent in a sample of cells. In some embodiments, the toxicity of the agent can be determined by determining a value for delta percent priming. As used herein, “delta percent priming” refers to the extent to which an agent shifts a cell closer to the threshold of apoptosis. In some embodiments, normalized values of MOMP (e.g., percent BH3 domain peptide-induced MOMP, or “% MOMP”) are used to determine a value for delta percent priming. In such embodiments, the value for delta percent priming can be calculated using the equation:
Delta Percent Priming=(% MOMPTEST)−(% MOMPCONTROL),
where “% MOMPTEST” represents the value for percent BH3 domain peptide-induced MOMP determined in a test aliquot (cells contacted with the agent); and “% MOMPCONTROL” represents the value for percent BH3 domain peptide-induced MOMP determined in a control aliquot (cells not contacted with the agent).
Next, various drug compounds were tested to assess the extent of drug-induced increased cell death sensitivity in adult mouse hepatocytes. Freshly isolated adult mouse hepatocytes were treated with different drugs for 20 hours, and the loss of cytochrome c induced by a single concentration of the synthetic Bim BH3 peptide was subsequently assessed by immunofluorescence (FIGS. 5A-D). Increase in cell death sensitivity is indicated by loss of cytochrome c, which is quantified as an increase in apoptotic sensitivity (delta priming, FIG. 5E).

As to `CC1(C)CCC(c2ccc(Cl)cc2)=C(CN2CCN(c3ccc(C(=O)NS(=O)(=O)c4ccc(N[C@H](CCN5CCOCC5)CSc5ccccc5)c(S(=O)(=O)C(F)(F)F)c4)cc3)CC2)C1` [Navitoclax], the “apoptotic sensitivity (delta priming)” value is “increase apoptotic sensitivity”.

Consider `COc1cccc2c1C(=O)c1c(O)c3c(c(O)c1C2=O)C[C@@](O)(C(=O)CO)C[C@@H]3O[C@H]1C[C@H](N)[C@H](O)[C@H](C)O1` [doxorubicin], for which the “apoptotic sensitivity (delta priming)” value was “increase apoptotic sensitivity”.

As for `C=CCNC1=C2C[C@@H](C)C[C@H](OC)[C@H](O)[C@@H](C)/C=C(\C)[C@H](OC(N)=O)[C@@H](OC)/C=C\C=C(/C)C(=O)NC(=CC1=O)C2=O` [tanespimycin], the “apoptotic sensitivity (delta priming)” value was “increase apoptotic sensitivity”.
